Experimental data from ChEMBL document CHEMBL2331215, “Discovery of novel N-substituted oxindoles as selective m1 and m4 muscarinic acetylcholine receptors partial agonists” (ACS Med Chem Lett, 2013).
Active and inactive are the calls of the source. The calls are words filed in the database; no cut-off is given here.

How the values were obtained:
[1] = tested on: Rattus norvegicus; assay: Potentiation of risperidone-induced catalepsy in Sprague-Dawley rats at 10 mg/kg, sc administered 15 mins after risperidone injection measured after 45 mins; format: ADME, organism-based; design: dose 10 mg/kg, route subcutaneous; details: in vivo, 0.75 h
[2] = tested on: Cynomolgus monkey; assay: Cardiotoxicity in telemetered cynomolgus monkey assessed as increase in mean blood pressure at 1.5 to 6 mg/kg, sc measured after 1 to 4 hrs by telemetry method; format: toxicity, organism-based, Macaca fascicularis; design: route subcutaneous; details: in vivo
[3] = tested on: Cynomolgus monkey; assay: Cardiotoxicity in telemetered cynomolgus monkey assessed as prolongation of QRS duration at 1.5 to 6 mg/kg, sc measured after 1 to 4 hrs by telemetry method; format: toxicity, organism-based, Macaca fascicularis; design: route subcutaneous; details: in vivo
[4] = biological target: T1, Muscarinic acetylcholine receptor M1 (Homo sapiens, UniProt P11229); assay: (§1) Partial agonist activity at human M1 receptor in CHO cells assessed as calcium mobilization after 60 mins by FLIPR assay; format: functional, cell-based
T1 sequence (P11229 whole entry): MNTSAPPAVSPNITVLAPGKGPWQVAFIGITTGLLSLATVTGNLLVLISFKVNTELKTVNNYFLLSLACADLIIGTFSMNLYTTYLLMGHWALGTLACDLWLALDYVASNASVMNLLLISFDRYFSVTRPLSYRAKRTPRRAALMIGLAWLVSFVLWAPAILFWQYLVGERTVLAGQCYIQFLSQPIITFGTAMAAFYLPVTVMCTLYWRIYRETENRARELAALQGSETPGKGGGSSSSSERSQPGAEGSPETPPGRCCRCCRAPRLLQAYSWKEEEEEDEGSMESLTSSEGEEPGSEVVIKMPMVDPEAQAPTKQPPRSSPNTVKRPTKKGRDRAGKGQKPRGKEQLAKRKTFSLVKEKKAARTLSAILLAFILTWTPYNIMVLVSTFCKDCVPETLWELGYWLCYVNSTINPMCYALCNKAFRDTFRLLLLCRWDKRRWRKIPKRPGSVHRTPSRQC

[5] = biological target: T2, Muscarinic acetylcholine receptor M1 (Homo sapiens) (UniProt P11229); assay: as §1; format: functional, cell-based
T2 sequence (whole entry): T1 sequence (P11229 whole entry)

[6] = tested on: Rattus norvegicus; assay: Induction of catalepsy in Sprague-Dawley rats at 10 to 30 mg/kg, sc measured after 60 mins; format: organism-based; design: dose 10-30 mg/kg, route subcutaneous; details: in vivo, 1 h
[7] = tested on: Cynomolgus monkey; assay: Induction of vomiting in sc dosed cynomolgus monkey; format: organism-based, Macaca fascicularis; details: in vivo
[8] = tested on: Rattus norvegicus; assay: Antipsychotic activity in Sprague-Dawley rats assessed as reversal of methamphetamine-induced hyperlocomotion at 1 to 10 mg/kg, sc administered 30 mins prior to methamphetamine injection measured for 80 mins from 10 mins after methamphetamine challenge; format: functional, organism-based
[9] = biological target: T3, Muscarinic acetylcholine receptor M5 (Homo sapiens) (UniProt P08912); assay: Partial agonist activity at human M5 receptor in CHO cells assessed as calcium mobilization at 30 uM after 60 mins by FLIPR assay; format: functional, cell-based
T3 sequence (whole entry): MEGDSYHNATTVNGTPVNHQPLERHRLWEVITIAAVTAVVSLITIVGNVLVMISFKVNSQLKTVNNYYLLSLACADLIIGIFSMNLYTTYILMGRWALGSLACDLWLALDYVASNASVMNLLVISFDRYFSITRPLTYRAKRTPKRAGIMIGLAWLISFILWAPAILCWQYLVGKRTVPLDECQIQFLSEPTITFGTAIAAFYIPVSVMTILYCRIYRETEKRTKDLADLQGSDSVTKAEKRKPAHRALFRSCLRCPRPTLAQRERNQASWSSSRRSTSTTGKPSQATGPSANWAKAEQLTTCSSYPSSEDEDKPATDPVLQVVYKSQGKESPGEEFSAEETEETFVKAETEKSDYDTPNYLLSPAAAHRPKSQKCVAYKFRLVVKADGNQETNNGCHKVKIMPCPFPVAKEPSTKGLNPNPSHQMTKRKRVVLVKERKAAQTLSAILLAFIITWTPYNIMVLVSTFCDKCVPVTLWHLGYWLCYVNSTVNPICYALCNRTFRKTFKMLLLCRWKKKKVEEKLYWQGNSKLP

[10] = biological target: Muscarinic acetylcholine receptor M3 (Homo sapiens) (UniProt P20309); assay: Partial agonist activity at human M3 receptor in CHO cells assessed as calcium mobilization at 3 uM after 60 mins by FLIPR assay; format: functional, cell-based
[11] = tested on: Mus musculus; assay: Antipsychotic activity in ddY mouse assessed as reversal of apomorphine-induced climbing behaviour at 0.3 to 3 mg/kg, sc administered 20 mins prior to apomorphine injection measured for 20 mins from 10 mins after apomorphine challenge; format: functional, organism-based
[12] = tested on: Rattus norvegicus; assay: Antipsychotic activity in Sprague-Dawley rats assessed as inhibition of apomorphine-induced prepulse inhibition deficit at 1 to 10 mg/kg, sc administered 15 mins prior to apomorphine injection measured after 15 mins; format: functional, organism-based
[13] = biological target: T4, Muscarinic acetylcholine receptor M2 (Homo sapiens) (UniProt P08172); assay: Partial agonist activity at human M2 receptor co-expressed with Galpha16 in CHO cells assessed as calcium mobilization at 30 uM after 60 mins by FLIPR assay; format: functional, cell-based
T4 sequence (whole entry): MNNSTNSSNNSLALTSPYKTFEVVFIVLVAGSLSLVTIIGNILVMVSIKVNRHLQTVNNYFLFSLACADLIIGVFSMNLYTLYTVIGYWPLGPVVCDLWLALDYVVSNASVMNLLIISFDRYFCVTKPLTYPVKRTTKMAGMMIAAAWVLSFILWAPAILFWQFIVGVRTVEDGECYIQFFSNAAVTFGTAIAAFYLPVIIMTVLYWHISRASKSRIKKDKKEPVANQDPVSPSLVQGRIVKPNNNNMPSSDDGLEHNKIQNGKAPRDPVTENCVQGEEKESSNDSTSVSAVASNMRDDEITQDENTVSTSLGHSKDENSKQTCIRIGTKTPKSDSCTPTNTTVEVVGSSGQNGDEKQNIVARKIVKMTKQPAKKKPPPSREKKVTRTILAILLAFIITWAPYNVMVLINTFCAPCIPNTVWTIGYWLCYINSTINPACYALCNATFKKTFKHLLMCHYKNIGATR

[14] = biological target: T2, Muscarinic acetylcholine receptor M1 (Homo sapiens); assay: Partial agonist activity at human M1 receptor in CHO cells assessed as calcium mobilization at 3 uM after 60 mins by FLIPR assay; format: functional, cell-based
[15] = biological target: T4, Muscarinic acetylcholine receptor M2 (Homo sapiens); assay: Partial agonist activity at human M2 receptor co-expressed with Galpha16 in CHO cells assessed as calcium mobilization at 3 uM after 60 mins by FLIPR assay; format: functional, cell-based
[16] = biological target: T3, Muscarinic acetylcholine receptor M5 (Homo sapiens); assay: Partial agonist activity at human M5 receptor in CHO cells assessed as calcium mobilization at 3 uM after 60 mins by FLIPR assay; format: functional, cell-based
[17] = tested on: Cynomolgus monkey; assay: Induction of drowsiness in sc dosed cynomolgus monkey; format: organism-based, Macaca fascicularis; details: in vivo
[18] = tested on: Cynomolgus monkey; assay: Induction of salivation in sc dosed cynomolgus monkey; format: organism-based, Macaca fascicularis; details: in vivo
[19] = tested on: Mus musculus; assay: Induction of salivation in ddY mouse at 10 to 30 mg/kg, sc measured for 30 mins after drug administration; format: organism-based; design: dose 10-30 mg/kg, route subcutaneous; details: in vivo, 0.5 h
[20] = tested on: Mus musculus; assay: Induction of seizures in ddY mouse at 100 mg/kg, sc measured for 45 mins after drug injection; format: organism-based; design: dose 100 mg/kg, route subcutaneous; details: in vivo, 0.75 h
[21] = tested on: Cynomolgus monkey; assay: Cardiotoxicity in telemetered cynomolgus monkey assessed as increase in heart rate at 1.5 to 6 mg/kg, sc measured after 1 to 4 hrs by telemetry method; format: toxicity, organism-based, Macaca fascicularis; design: route subcutaneous; details: in vivo
[22] = biological target: Muscarinic acetylcholine receptor M3 (Homo sapiens) (UniProt P20309); assay: Partial agonist activity at human M3 receptor in CHO cells assessed as calcium mobilization at 30 uM after 60 mins by FLIPR assay; format: functional, cell-based

Chain of Muscarinic acetylcholine receptor M3 (Homo sapiens) (P20309 whole entry, looked up): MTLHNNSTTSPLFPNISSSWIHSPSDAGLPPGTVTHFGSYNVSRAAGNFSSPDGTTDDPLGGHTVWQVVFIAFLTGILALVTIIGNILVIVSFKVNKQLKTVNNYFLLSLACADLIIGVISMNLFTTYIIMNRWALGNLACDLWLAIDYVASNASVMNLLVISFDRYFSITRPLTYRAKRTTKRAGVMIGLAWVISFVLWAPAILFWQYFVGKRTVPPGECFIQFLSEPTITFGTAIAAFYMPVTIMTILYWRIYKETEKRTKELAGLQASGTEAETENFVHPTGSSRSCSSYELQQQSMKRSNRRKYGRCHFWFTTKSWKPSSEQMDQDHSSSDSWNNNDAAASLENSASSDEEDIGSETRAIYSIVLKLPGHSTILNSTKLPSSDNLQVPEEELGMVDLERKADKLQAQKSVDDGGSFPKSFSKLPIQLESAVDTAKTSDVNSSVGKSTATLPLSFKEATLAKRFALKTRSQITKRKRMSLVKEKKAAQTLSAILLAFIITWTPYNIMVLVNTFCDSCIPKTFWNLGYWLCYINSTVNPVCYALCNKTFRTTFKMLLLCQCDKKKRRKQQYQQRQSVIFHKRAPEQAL

Compound: CCOC(=O)N1[C@@H]2CC[C@H]1C[C@H](CN1CC[C@H](N3C(=O)Cc4ccccc43)C1)C2
- Activity [1]: Non-toxic
- Activity [2]: Non-toxic
- Activity [3]: Non-toxic
- EC50 [4]: 12 nM
- Intrinsic activity [5]: 60%
- Activity [6]: Non-toxic
- Activity [7]: Non-toxic
- inhibition [8]: Active
- Activity [9]: inactive
- Activity [10]: 7%
- inhibition [11]: Active
- inhibition [12]: Active
- Activity [13]: inactive
- Activity [14]: 63%
- Activity [15]: 25%
- Activity [16]: 17%
- Activity [17]: Non-toxic
- Activity [18]: Toxic
- Activity [19]: Non-toxic
- Activity [20]: Non-toxic
- Activity [21]: Toxic
- Activity [22]: inactive
